# From ChEMBL document CHEMBL5352441, “Modulation of FLT3-ITD and CDK9 in acute myeloid leukaemia cells by novel proteolysis targeting chimera (PROTAC)” (2022)
# Calls of active or inactive are those of the source. The calls are words filed in the database; no cut-off is given here.
# How the values were obtained:
# U-937 = test: Antiproliferative activity against human U-937 cells assessed as cell growth inhibition incubated for 72 hrs by resazurin dye based fluorescence analysis; format: functional
# Kasumi 1 = test: Antiproliferative activity against human Kasumi 1 cells assessed as cell growth inhibition incubated for 72 hrs by resazurin dye based fluorescence analysis; format: functional
# [1] = biological target: CDK9/cyclin T1 (Homo sapiens) (UniProt O60563+P50750); test: Inhibition of human CDK9/Cyclin T1 assessed as residual activity at 100 nM relative to control; format: protein-complex assay
# [2] = tested on: Receptor-type tyrosine-protein kinase FLT3 (Homo sapiens), P36888 [UNDEFINED MUTATION]; test: Inhibition of FLT3 autophosphorylation at Y589/591 residue in human MV4-11 cells harboring FLT3-ITD mutation at 0.004 to 2.5 uM incubated for 16 hrs by immunoblot analysis; format: cell-based; conditions: dose 0.004-2.5 µM
# [3] = tested on: Receptor-type tyrosine-protein kinase FLT3 (Homo sapiens), P36888 [UNDEFINED MUTATION]; test: Inhibition of FLT3 in human MV4-11 cells harboring FLT3-ITD mutation assessed as reduction in STAT5 phosphorylation at Y694 residue at 0.004 to 2.5 uM incubated for 16 hrs by immunoblot analysis; format: cell-based; conditions: dose 0.004-2.5 µM
# [4] = biological target: T1, Protein cereblon/Receptor-type tyrosine-protein kinase FLT3 (Homo sapiens) (UniProt P36888+Q96SW2); test: PROTAC activity at CRBN/FLT3 in human MV4-11 cells harboring FLT3-ITD mutation assessed as induction of protein degradation at […] incubated for 16 hrs by immunoblot analysis; format: cell-based
# [5] = biological target: T2, Protein cereblon/Cyclin-dependent kinase 9 (Homo sapiens) (UniProt P50750+Q96SW2); test: PROTAC activity at CRBN/CDK9 in human MV4-11 cells harboring FLT3-ITD mutation assessed as induction of protein degradation incubated for 16 hrs by immunoblot analysis; format: cell-based; conditions: dose 0.004-2.5 µM
# [6] = biological target: Receptor-type tyrosine-protein kinase FLT3 (Homo sapiens) (UniProt P36888); test: Stabilization of FLT3 in CRBN-deficient human MV4-11 at 0.004 to 2.5 uM incubated for 16 hrs by immunoblot analysis; format: cell-based; conditions: dose 0.004-2.5 µM
# MV4-11 [7] = test: Induction of apoptosis in human MV4-11 cells assessed as activation of caspase 3 incubated for 16 hrs in presence of Ac-DEVD-AMC by fluorescence microplate reader analysis; format: functional, cell-based; conditions: dose 0.004-2.5 µM
# MV4-11 [8] = test: Induction of apoptosis in human MV4-11 cells assessed as PARP-1 cleavage incubated for 16 hrs in presence of Ac-DEVD-AMC by fluorescence microplate reader analysis; format: functional, cell-based; conditions: dose 0.004-2.5 µM
# MV4-11 [9] = test: Induction of apoptosis in CRBN-deficient human MV4-11 cells assessed as activation of caspase 3 at 0.004 to 25 uM incubated for 16 hrs in presence of Ac-DEVD-AMC by fluorescence microplate reader analysis; format: functional, cell-based; conditions: dose 0.004-25 µM
# MV4-11 [10] = test: Induction of cell cycle arrest in human MV4-11 cells assessed as accumulation of cells at G1 phase at 0.004 uM incubated for 16 hrs by PI staining based flow cytometry analysis (reference value: 62.97%); format: functional
# MV4-11 [11] = test: Induction of cell cycle arrest in human MV4-11 cells assessed as accumulation of cells at G2/M phase at 0.1 uM incubated for 16 hrs by PI staining based flow cytometry analysis (reference value: 10.86%); format: functional
# MV4-11 [12] = test: Induction of cell cycle arrest in human MV4-11 cells assessed as accumulation of cells at S phase at 0.5 uM incubated for 16 hrs by PI staining based flow cytometry analysis (reference value: 26.16%); format: functional
# MV4-11 [13] = test: Induction of cell cycle arrest in human MV4-11 cells assessed as accumulation of cells at G1 phase at 2.5 uM incubated for 16 hrs by PI staining based flow cytometry analysis (reference value: 62.97%); format: functional
# MV4-11 [14] = test: Induction of cell cycle arrest in CRBN-deficient human MV4-11 cells assessed as accumulation of cells at G1 phase at 0.02 uM incubated for 16 hrs by PI staining based flow cytometry analysis (reference value: 54.05%); format: functional
# MV4-11 [15] = test: Induction of cell cycle arrest in CRBN-deficient human MV4-11 cells assessed as accumulation of cells at G2/M phase at 0.1 uM incubated for 16 hrs by PI staining based flow cytometry analysis (reference value: 9.34%); format: functional
# MV4-11 [16] = test: Downregulation of Myc gene expression in human MV4-11 cells incubated for 4 hrs by qRT-PCR analysis; format: functional, cell-based; conditions: dose 0.004-2.5 µM
# [17] = biological target: T1, Protein cereblon/Receptor-type tyrosine-protein kinase FLT3 (Homo sapiens); test: PROTAC activity at CRBN/FLT3 in human MV4-11 cells at 0.1 to 0.5 uM preincubated for 90 mins with 4-hydroxythalidomide followed by compound addition and further incubated for 16 hrs by immunoblot analysis; format: cell-based; conditions: dose 0.1-0.5 µM
# [18] = biological target: T2, Protein cereblon/Cyclin-dependent kinase 9 (Homo sapiens); test: PROTAC activity at CRBN/CDK9 in human MV4-11 cells at 0.1 to 0.5 uM preincubated for 90 mins with 4-hydroxythalidomide followed by compound addition and further incubated for 16 hrs by immunoblot analysis; format: cell-based; conditions: dose 0.1-0.5 µM
# [19] = biological target: T2, Protein cereblon/Cyclin-dependent kinase 9 (Homo sapiens); test: PROTAC activity at CRBN/CDK9 in human MV4-11 cells at 0.1 to 0.5 uM preincubated for 90 mins with MG132 followed by compound addition and further incubated for 16 hrs by immunoblot analysis; format: cell-based; conditions: dose 0.1-0.5 µM
# T2 sequence (P50750 whole entry, looked up): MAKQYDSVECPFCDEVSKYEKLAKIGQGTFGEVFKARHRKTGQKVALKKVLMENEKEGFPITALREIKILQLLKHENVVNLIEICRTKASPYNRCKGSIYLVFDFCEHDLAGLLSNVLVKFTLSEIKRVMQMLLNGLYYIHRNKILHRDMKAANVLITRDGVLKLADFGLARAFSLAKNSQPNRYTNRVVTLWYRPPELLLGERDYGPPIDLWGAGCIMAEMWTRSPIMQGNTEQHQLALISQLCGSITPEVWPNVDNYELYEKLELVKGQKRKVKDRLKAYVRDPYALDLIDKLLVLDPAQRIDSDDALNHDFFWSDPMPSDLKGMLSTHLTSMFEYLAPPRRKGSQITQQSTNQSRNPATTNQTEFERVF
# T2 sequence (Q96SW2 whole entry, looked up): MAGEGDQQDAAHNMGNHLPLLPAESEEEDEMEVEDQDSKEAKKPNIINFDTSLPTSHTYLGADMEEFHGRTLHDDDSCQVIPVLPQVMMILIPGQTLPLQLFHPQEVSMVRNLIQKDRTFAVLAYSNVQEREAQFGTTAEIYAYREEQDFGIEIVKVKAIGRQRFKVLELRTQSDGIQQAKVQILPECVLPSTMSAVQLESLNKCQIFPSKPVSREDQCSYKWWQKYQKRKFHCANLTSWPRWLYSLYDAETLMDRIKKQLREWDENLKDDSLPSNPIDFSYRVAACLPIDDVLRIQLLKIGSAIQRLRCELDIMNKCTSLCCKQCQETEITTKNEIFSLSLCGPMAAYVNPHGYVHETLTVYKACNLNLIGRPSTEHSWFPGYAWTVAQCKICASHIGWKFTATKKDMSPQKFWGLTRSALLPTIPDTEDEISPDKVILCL
# Sequence of Receptor-type tyrosine-protein kinase FLT3 (Homo sapiens), P36888 [UNDEFINED MUTATION] (P36888 whole entry, looked up, change not shown): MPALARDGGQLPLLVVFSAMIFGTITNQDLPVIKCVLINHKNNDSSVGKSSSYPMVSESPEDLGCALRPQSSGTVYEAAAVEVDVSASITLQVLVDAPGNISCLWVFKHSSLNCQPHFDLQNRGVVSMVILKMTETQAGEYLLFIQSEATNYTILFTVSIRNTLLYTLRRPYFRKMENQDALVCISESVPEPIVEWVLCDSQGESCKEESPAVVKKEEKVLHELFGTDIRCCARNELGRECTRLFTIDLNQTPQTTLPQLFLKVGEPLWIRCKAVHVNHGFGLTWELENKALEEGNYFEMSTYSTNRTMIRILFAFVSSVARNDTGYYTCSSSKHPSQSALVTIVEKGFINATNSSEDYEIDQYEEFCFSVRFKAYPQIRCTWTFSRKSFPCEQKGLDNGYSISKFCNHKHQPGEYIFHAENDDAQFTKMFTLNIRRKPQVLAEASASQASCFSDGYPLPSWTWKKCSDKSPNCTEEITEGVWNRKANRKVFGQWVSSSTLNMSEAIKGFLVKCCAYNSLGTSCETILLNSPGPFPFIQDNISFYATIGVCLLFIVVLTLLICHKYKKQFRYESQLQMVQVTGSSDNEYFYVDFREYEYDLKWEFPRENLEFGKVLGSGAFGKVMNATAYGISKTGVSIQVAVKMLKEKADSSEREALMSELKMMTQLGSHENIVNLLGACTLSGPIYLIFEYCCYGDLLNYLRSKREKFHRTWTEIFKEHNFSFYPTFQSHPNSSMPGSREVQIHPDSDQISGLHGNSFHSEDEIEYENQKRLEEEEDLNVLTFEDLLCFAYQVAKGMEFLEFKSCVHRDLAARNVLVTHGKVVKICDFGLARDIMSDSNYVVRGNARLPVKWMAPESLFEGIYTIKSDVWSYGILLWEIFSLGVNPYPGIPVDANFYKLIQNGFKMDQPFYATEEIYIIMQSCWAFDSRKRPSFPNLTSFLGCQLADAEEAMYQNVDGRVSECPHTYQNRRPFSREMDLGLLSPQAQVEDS
# T1 sequence (P36888 27-993 limits assumed): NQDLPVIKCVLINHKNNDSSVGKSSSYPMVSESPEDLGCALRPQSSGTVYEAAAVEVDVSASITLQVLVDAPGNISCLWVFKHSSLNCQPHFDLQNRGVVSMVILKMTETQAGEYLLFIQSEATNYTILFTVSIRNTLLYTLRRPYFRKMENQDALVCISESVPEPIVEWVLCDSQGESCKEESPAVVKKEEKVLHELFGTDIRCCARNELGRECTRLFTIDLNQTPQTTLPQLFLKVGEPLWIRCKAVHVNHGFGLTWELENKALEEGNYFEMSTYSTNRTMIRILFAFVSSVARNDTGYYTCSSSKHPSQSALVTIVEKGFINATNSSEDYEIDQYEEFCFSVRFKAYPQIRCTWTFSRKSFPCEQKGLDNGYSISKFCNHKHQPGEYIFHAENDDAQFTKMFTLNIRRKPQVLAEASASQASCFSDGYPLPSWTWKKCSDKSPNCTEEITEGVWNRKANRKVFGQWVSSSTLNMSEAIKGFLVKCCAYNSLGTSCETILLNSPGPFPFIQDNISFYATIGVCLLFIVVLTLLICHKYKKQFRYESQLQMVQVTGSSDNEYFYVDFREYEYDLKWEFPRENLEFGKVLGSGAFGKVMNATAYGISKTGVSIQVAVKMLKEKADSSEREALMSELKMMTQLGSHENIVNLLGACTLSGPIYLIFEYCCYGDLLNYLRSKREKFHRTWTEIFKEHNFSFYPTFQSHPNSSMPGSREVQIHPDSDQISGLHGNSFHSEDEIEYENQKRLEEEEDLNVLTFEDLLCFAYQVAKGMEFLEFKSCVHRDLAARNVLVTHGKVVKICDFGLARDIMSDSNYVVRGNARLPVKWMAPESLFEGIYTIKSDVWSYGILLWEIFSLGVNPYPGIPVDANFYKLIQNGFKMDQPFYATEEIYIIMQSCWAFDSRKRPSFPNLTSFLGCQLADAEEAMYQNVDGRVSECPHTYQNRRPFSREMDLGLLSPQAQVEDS
# T1 sequence (Q96SW2 whole entry partner): as the sequence (Q96SW2 whole entry, looked up) above
# Sequence of Receptor-type tyrosine-protein kinase FLT3 (Homo sapiens) (P36888 whole entry): as the sequence (P36888 whole entry, looked up, change not shown) above
compound,measurement,setting,value
NC1CCC(Nc2nc(Nc3ccc(N4CCN(CCOCCOCCNC(=O)CNc5cccc6c5C(=O)N(C5CCC(=O)NC5=O)C6=O)CC4)cc3)c3ncn(C4CCCC4)c3n2)CC1 (stereo unspecified),GI50,U-937,9.51 µM
same,GI50,Kasumi 1,> 10 µM
same,Activity,[1],8%
same,inhibition,[2],Active
same,inhibition,[3],Active
same,Activity,[4],Active
same,Activity,[5],Dose-Dependent Effect
same,Activity,[6],Active
same,Activity,MV4-11 [7],Dose-Dependent Effect
same,Activity,MV4-11 [8],Dose-Dependent Effect
same,Activity,MV4-11 [9],inactive
same,Activity,MV4-11 [10],69.48%
same,Activity,MV4-11 [11],3.96%
same,Activity,MV4-11 [12],18.55%
same,Activity,MV4-11 [13],57.33%
same,Activity,MV4-11 [14],76.96%
same,Activity,MV4-11 [15],3.38%
same,Activity,MV4-11 [16],Dose-Dependent Effect
same,Activity,[17],inactive
same,Activity,[18],inactive
same,Activity,[19],inactive
